For 3 molecules, MIC results are on record in ChEMBL document CHEMBL2046443, “Desmethyl Macrolides: Synthesis and Evaluation of 4,10-Didesmethyl Telithromycin” (2012).

Structures are written as SMILES. Values after ≈ are worked out from the molar mass of the structure shown. Bounds are passed on as bounds.

What all share (format): functional
Experiment [1] deals with Escherichia coli. Kind of experiment: Antibacterial activity against wild type Escherichia coli DK/pKK3535.
Experiment [2] has as its system Staphylococcus aureus. Kind of experiment: Antibacterial activity against Staphylococcus aureus UCN14 harboring 23S rRNA A2058T mutant.
Experiment [3] relates to Escherichia coli. The experiment can be described thus: Antibacterial activity against Escherichia coli DK harboring 23S rRNA A2058G mutant.
The subject of experiment [4] is Staphylococcus aureus. The experiment can be described thus: Antibacterial activity against Staphylococcus aureus ATCC 33591 harboring ermA gene.
Experiment [5] deals with Escherichia coli. Kind of experiment: Antibacterial activity against Escherichia coli SQ171 harboring 23S rRNA A2058G mutant.

With `CC[C@H]1OC(=O)[C@H](C)C(=O)C[C@@H](O[C@@H]2O[C@H](C)C[C@H](N(C)C)[C@H]2O)[C@@](C)(OC)CCC(=O)C[C@@H]2N(CCCCn3cnc(-c4cccnc4)c3)C(=O)O[C@@]21C`, the MIC (in general, the lowest concentration that inhibits growth of the organism) against Escherichia coli [1] came out at 32 µg/mL (≈ 41.6 µM).

As to `CC[C@H]1OC(=O)[C@H](C)C(=O)C[C@@H](O[C@@H]2O[C@H](C)C[C@H](N(C)C)[C@H]2O)[C@](C)(OC)C[C@@H](C)C(=O)C[C@H]2N(CCCCn3cnc(-c4cccnc4)c3)C(=O)O[C@]12C`, the MIC is greater than 256 µg/mL in the experiment with Staphylococcus aureus [2]; 8 µg/mL (≈ 10.2 µM) in the experiment on Escherichia coli [1]; 16 µg/mL (≈ 20.4 µM) in the experiment with Escherichia coli [3]; greater than 128 µg/mL with Staphylococcus aureus [4]; greater than 512 µg/mL in the experiment with Escherichia coli [5].

Regarding `CC[C@H]1OC(=O)[C@H](C)C(=O)[C@H](C)[C@@H](O[C@@H]2O[C@H](C)C[C@H](N(C)C)[C@H]2O)[C@](C)(OC)C[C@@H](C)C(=O)[C@H](C)[C@H]2N(CCCCn3cnc(-c4cccnc4)c3)C(=O)O[C@]12C` [TELITHROMYCIN], the minimum inhibitory concentration (MIC) in the experiment on Staphylococcus aureus [2] is greater than 128 µg/mL; in the experiment on Escherichia coli [1], 0.5 µg/mL (≈ 0.616 µM); against Escherichia coli [3], 1 µg/mL (≈ 1.23 µM); against Staphylococcus aureus [4], greater than 128 µg/mL; against Escherichia coli [5], greater than 512 µg/mL.
